Measurements: publication PMC7004140, “In vitro hepatotoxicity of Petasites hybridus extract (Ze 339) depends on the concentration, the cytochrome activity of the cell system, and the species used” (Phytotherapy Research, 2019)

What was measured:
CYP2C8 (human) = biological target: T1, CYP2C8 (human) (Homo sapiens, UniProt P10632); assay: Metabolism by isolated human CYP2C8; format: in vitro ADME; details: petasins 20 μM, 60 min
T1 construct: purchased BD Gentest (Switzerland); host or cells: baculovirus expression system
T1 sequence (P10632 1-490): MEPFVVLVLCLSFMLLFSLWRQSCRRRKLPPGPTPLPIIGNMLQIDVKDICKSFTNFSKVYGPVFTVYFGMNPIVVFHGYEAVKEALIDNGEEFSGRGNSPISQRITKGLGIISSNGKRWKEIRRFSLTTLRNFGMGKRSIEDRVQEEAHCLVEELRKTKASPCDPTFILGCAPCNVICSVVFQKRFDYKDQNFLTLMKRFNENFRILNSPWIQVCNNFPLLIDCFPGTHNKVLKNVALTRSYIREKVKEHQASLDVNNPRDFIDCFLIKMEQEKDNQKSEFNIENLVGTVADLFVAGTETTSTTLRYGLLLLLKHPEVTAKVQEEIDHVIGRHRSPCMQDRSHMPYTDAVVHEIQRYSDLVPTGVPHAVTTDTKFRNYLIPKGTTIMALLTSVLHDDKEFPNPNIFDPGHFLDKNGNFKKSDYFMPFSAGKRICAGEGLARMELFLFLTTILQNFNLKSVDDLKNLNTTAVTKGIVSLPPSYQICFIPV
Excerpt: (§1) The metabolism of petasin, isopetasin, and neopetasin was investigated using three different S9 fractions originating from three different species (isolated from rat, dog, and human liver homogenates containing cytochrome P450 isoforms) and isolated cytochromes of two different species (human and rat; rat analogues of the respective human cytochromes were used). For the expression of the different cytochromes, a baculovirus expression system was used according to supplier's manual. The S9 fractions or respectively single P450 cytochromes were used to mimic the liver metabolism by in vitro incubation.
(§2) The assay was carried out in triplicate in 1.5 ml glass vials with a final concentration of 20 μM of petasin, isopetasin, and neopetasin. The incubation was performed in a 37°C warm water bath. S9 fractions were thawed slowly on ice. Four different approaches were pursued by testing: (a) petasin, neopetasin, and isopetasin before (0 min) and after 60 min incubations with S9 fraction; (b) petasin, neopetasin, and isopetasin without S9 fraction after 60 min incubation; (c) vehicle as negative controls; and (d) cofactors of S9 fraction after 60‐min incubation.
(§3) A mixture of NADPH regeneration systems A (20‐fold) and B (100‐fold), phosphate buffer, and H2O was added, preincubated at 37°C, and shaken gently for 5 min. Afterwards, the recommended amount between 10 and 40 pmol/ml of enzyme or enzyme mixture was added according to manufacturer's instruction and incubated for further 60 min at 37°C and gently shaken. Afterwards, the reactions were stopped by addition of acetonitrile (400 μl). For the control sample, acetonitrile was added at 0 min incubation. The samples were centrifuged for 3 min at 10,000 × g. The supernatant was transferred to high‐performance liquid chromatography vials and analyzed by ultra‐performance liquid chromatography mass spectrometry (UPLC/MS). The UPLC analysis was performed with an UPLC Acquity H Class from Waters (Waters Corporation, Switzerland) including a quaternary high‐pressure gradient pump, an automatic sample injector, and a column thermostat. […]

CYP2D2 (rats) = biological target: T2, CYP2D2 (rats) (Rattus norvegicus, UniProt P10634); assay: Metabolism by isolated rat CYP2D2; format: in vitro ADME; details: petasins 20 μM, 60 min
T2 construct: purchased BD Gentest (Switzerland); host or cells: baculovirus expression system
T2 sequence (P10634 1-500): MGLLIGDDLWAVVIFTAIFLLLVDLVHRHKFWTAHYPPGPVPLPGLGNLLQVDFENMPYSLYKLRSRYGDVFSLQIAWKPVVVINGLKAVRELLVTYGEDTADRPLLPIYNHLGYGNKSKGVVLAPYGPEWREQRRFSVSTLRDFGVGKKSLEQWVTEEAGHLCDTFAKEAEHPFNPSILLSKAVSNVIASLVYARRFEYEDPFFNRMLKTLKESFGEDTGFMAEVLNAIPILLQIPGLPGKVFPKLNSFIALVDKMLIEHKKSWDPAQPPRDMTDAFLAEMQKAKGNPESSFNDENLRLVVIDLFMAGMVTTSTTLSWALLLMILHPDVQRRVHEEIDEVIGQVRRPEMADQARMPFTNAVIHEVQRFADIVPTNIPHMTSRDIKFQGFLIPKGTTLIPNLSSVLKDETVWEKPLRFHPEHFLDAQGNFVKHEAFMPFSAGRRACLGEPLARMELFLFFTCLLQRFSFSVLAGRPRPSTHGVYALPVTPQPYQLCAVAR
Excerpt: as §1, §2, §3

[1] = Incubation without S9 fraction (solvent or cofactors only, negative controls); format: in vitro ADME; details: 20 μM, 60 min, data not shown; for metabolism with cofactors of S9 fraction only (negative control): cofactor only; for metabolism with solvent (negative control): solvent only
Procedure: as §2
A mixture of NADPH regeneration systems A (20‐fold) and B (100‐fold), phosphate buffer, and H2O was added, preincubated at 37°C, and shaken gently for 5 min. Afterwards, the recommended amount between 10 and 40 pmol/ml of enzyme or enzyme mixture was added according to manufacturer's instruction and incubated for further 60 min at 37°C and gently shaken. Afterwards, the reactions were stopped by addition of acetonitrile (400 μl). For the control sample, acetonitrile was added at 0 min incubation. The samples were centrifuged for 3 min at 10,000 × g. The supernatant was transferred to high‐performance liquid chromatography vials and analyzed by ultra‐performance liquid chromatography mass spectrometry (UPLC/MS). The UPLC analysis was performed with an UPLC Acquity H Class from Waters (Waters Corporation, Switzerland) including a quaternary high‐pressure gradient pump, an automatic sample injector, and a column thermostat. Chromatographic separation was achieved on an Acquity BEH C18, […], 50 × 2.1 mm column (Waters, Switzerland). The mobile phase consisted of 0.1% formic acid (A) and acetonitrile (B). The initial gradient condition was 10% (B) followed by a step to 90% (B) until 6.0 min. The column temperature was adjusted to 40°C. The flow rate was 0.5 ml/min and the injection volume 5 μl. The mass spectrometry was performed in positive electrospray mode using an ACQUITY QDa mass detector (Waters Corporation, Switzerland). The single ion recording was set to 317.2 Da.

H-4-II-E cells = assay: WST-1 metabolic activity (cytotoxicity) in H-4-II-E cells; format: cell-based, rat (Rattus norvegicus); details: Rattus norvegicus, H4IIE, single constituents, 4 hr
Procedure: HepG2 and H‐4‐II‐E cells were differentiated for 24 hr. HepaRG cells were directly seeded in precoated 96‐well microtiter plates and were incubated in William's medium with general purpose supplements according to manufacturer's manual until adherence. All cells were treated with Ze 339 (up to 100 μg/ml) or petasin, isopetasin, neopetasin, petasol, isopetasol, petasin mixture, fatty acid mixture, and reconstituted extracts (up to 250 μM) for 4 hr.
In the three cell lines, cytotoxicity was defined as a decrease in metabolic activity of ≥20% in the WST‐1 assay. At the end of the experiment, 10 μl WST‐1 reagent was added to each well. Plates were then incubated for 2 hr to allow for the reduction of WST‐1 reagent. Absorbance was measured using a microplate absorbance reader (Infinite M 200, Tecan Trading Ltd., Switzerland) at 450 nm, reference wavelength of 620 nm. Due to some matrix effect, the lowest concentration (0.02 μg/ml for Ze 339 and 3.9 μM for single constituents and mixtures) of each substance tested was defined as 100% metabolic activity. Results were expressed as percentage of the control metabolic activity, and data were presented as mean values ± SEM (n = 3–6).
Concentration‐response analysis was done using the sigmoidal Hill equation: E(t) = E0 − Emax × C(t)^N/(IC50 ^N + C(t)^N), where E is the effect at time t, E0 the effect at baseline (time = 0), IC50 the concentration yielding 50% of the maximal effect (Emax), and N denotes the sigmoidicity coefficient (Origin 2017 Software). For statistical analysis, analysis of variance with Dunnett's multicomparison test was used to correct for multiplicity of testing (IBM SPSS Statistics software, version 25, IBM Corp., USA). The level of significance was ^* p < .05, ^** p < .01 and ^*** p < .001; NS = no significance.

extent of metabolism by CYP2C8 (human) (CYP2C8 (human)) [%] | extent of metabolism by CYP2D2 (rat) (CYP2D2 (rats)) [%] | metabolism with cofactors of S9 fraction only (negative control) [1] [%] | metabolism with solvent (negative control) [1] [%] | Structure (SMILES) | EC50 (H-4-II-E cells) [µM]
44 | 7 | < 1 | < 1 | C/C=C(/C)C(=O)O[C@@H]1CCC2=CC(=O)C(=C(C)C)C[C@]2(C)[C@H]1C [isopetasin] | 110
71 | 36 | < 1 | < 1 | C=C(C)[C@H]1C[C@@]2(C)C(=CC1=O)CC[C@@H](OC(=O)/C(C)=C\C)[C@@H]2C [neopetasin] | 15.8
54 | 37 | 10 | < 1 | C=C(C)[C@@H]1C[C@@]2(C)C(=CC1=O)CC[C@@H](OC(=O)/C(C)=C\C)[C@@H]2C [petasin] | 132
